The values that follow come from patent US8410302B2, “Methoxyimino compounds and fungicide composition comprising same” (Kyung Nong Corporation, priority 2007, dated 2013).

For one assay, the system named is Phytophthora infestans. The assay can be described thus: whole plant or invertebrate. Type of assay: in vivo. The settings on record: for TLB control value (C.V.): tomato late blight.
Another assay concerns Rhizoctonia solani AG-1. The assay can be described thus: Fungicidal activity against rice sheath blight (RSB) disease, control value. The settings on record: for RSB control value (C.V.): rice sheath blight.
The subject of the next assay is Erysiphae graminis. The experiment in a line: Fungicidal activity against barley powdery mildew (BPM) disease, control value. Type of assay: in vivo.
A further assay concerns Botrytis cinerae. The experiment in a line: Fungicidal activity against cucumber gray mold rot (CGM) disease, control value. It counts as in vivo. The conditions noted are these: for pest or weed control at 50 ppm / pest or weed control at 100 ppm: Botrytis, read-out: CGM control value (C.V.); for CGM control value (C.V.) / pest or weed control at 100 ppm: 100 ppm.
For another assay, the system named is Puccinia recondita. The assay can be described thus: Fungicidal activity against wheat leaf rust (WLR) disease, control value. Type of assay: in vivo.
For assay [1], the system named is Pyricularia oryzae Carvara KA301. The experiment in a line: whole plant or invertebrate. It counts as in vivo. The settings on record: for RCB control value (C.V.): rice blast.
The mark [2] stands for this setting: Phytophthora infestans, in Solanum lycopersicum, read-out: TLB control value (C.V.).
Setting [3] is: Rhizoctonia solani, AG1, in Oryza sativa, read-out: RSB control value (C.V.).
[4] abbreviates: 168 h, 2 ppm, read-out: BPM control value (C.V.).
Where [5] appears, read: 168 h, 10 ppm, read-out: BPM control value (C.V.).
[6] abbreviates: 168 h, 50 ppm, read-out: BPM control value (C.V.).
[7] abbreviates: Puccinia recondita, 2 ppm, read-out: WLR control value (C.V.).
Where [8] appears, read: Puccinia recondita, 10 ppm, read-out: WLR control value (C.V.).
The mark [9] stands for this setting: Puccinia recondita, 50 ppm, read-out: WLR control value (C.V.).
Where [10] appears, read: Pyricularia oryzae, read-out: RCB control value (C.V.).
The mark [11] stands for this setting: Hordeum vulgare, 168 h, 2 ppm, barley powdery mildew, read-out: BPM control value (C.V.).
[12] abbreviates: Hordeum vulgare, 168 h, 10 ppm, barley powdery mildew, read-out: BPM control value (C.V.).
Setting [13] is: Hordeum vulgare, 168 h, 50 ppm, barley powdery mildew, read-out: BPM control value (C.V.).
[14] abbreviates: Hordeum vulgare, 168 h, 100 ppm, barley powdery mildew, read-out: BPM control value (C.V.).
The mark [15] stands for this setting: 2 ppm, wheat leaf rust, read-out: WLR control value (C.V.).
[16] abbreviates: 10 ppm, wheat leaf rust, read-out: WLR control value (C.V.).
Where [17] appears, read: 50 ppm, wheat leaf rust, read-out: WLR control value (C.V.).
The mark [18] stands for this setting: 100 ppm, wheat leaf rust, read-out: WLR control value (C.V.).

Where two headings read alike, the source gives them in different places.

`CO/N=C(/C(=O)OC)c1ccccc1COc1ccccc1C` [Kresoxim-methyl, reference compound]: the pest or weed control at 0.4 ppm in the assay on Phytophthora infestans (setting [2]) was found to be 30%; in the assay on Rhizoctonia solani AG-1 (setting [3]), 67%; in the assay on Erysiphae graminis (168 h, 0.4 ppm, read-out: BPM control value (C.V.)), 95%; in the assay with Puccinia recondita (Puccinia recondita, 0.4 ppm, read-out: WLR control value (C.V.)), 85%; in assay [1] (setting [10]) it was 30%. In addition, the pest or weed control at 2 ppm with Phytophthora infestans (setting [2]) was determined as 80%; in the assay on Rhizoctonia solani AG-1 (setting [3]), 90%; in the assay with Erysiphae graminis (setting [4]) it was 100%; with Puccinia recondita (setting [7]), 95%; in assay [1] (setting [10]) it was 60%. For the same molecule, the pest or weed control at 10 ppm in the assay on Phytophthora infestans (setting [2]) came out at 95%; in the assay with Rhizoctonia solani AG-1 (setting [3]), 98%; with Erysiphae graminis (setting [5]), 100%; with Puccinia recondita (setting [8]) it was 100%; in assay [1] (setting [10]), 95%. The pest or weed control at 50 ppm turned out to be 100% in the assay with Phytophthora infestans (setting [2]); 100% in the assay with Rhizoctonia solani AG-1 (setting [3]); 100% with Erysiphae graminis (setting [6]); 30% in the assay on Botrytis cinerae; 100% in the assay with Puccinia recondita (setting [9]); 100% in assay [1] (setting [10]).
In the case of `CNC(=O)/C(=N/OC)c1ccccc1CON=C(C)c1ccc(C=C(Cl)Cl)cc1` [Example 22, (E)-2-[[[[[2-[4-(2,2-dichlorovinyl)phenyl](1-methyl)methylidene]amino]oxy]methyl]phenyl]-2-methoxyimino-N-methylacetamide], the “TLB control value (C.V.)” value with Phytophthora infestans (2 ppm) stood at 90%; in the assay with Phytophthora infestans (10 ppm), 100%; with Phytophthora infestans (50 ppm), 100%; in the assay on Phytophthora infestans (100 ppm) it was 100%. The “RSB control value (C.V.)” value with Rhizoctonia solani AG-1 (2 ppm) amounted to 90%; with Rhizoctonia solani AG-1 (10 ppm), 98%; in the assay on Rhizoctonia solani AG-1 (50 ppm), 100%; in the assay on Rhizoctonia solani AG-1 (100 ppm), 100%. Besides, the “BPM control value (C.V.)” value in the assay with Erysiphae graminis (2 ppm, barley powdery mildew) is given as 98%; in the assay on Erysiphae graminis (10 ppm, barley powdery mildew), 100%; in the assay with Erysiphae graminis (50 ppm, barley powdery mildew), 100%; in the assay on Erysiphae graminis (100 ppm, barley powdery mildew) it was 100%. The “CGM control value (C.V.)” value in the assay with Botrytis cinerae (cucumber gray mold rot) was found to be 45%. Moreover, the “WLR control value (C.V.)” value in the assay with Puccinia recondita (2 ppm, wheat leaf rust) worked out at 100%; with Puccinia recondita (10 ppm, wheat leaf rust), 100%; in the assay on Puccinia recondita (50 ppm, wheat leaf rust), 100%; in the assay with Puccinia recondita (100 ppm, wheat leaf rust), 100%. The “RCB control value (C.V.)” value in assay [1] (2 ppm), in assay [1] (10 ppm), in assay [1] (50 ppm) and in assay [1] (100 ppm) was 100% each time.
With `CO/N=C(/C(=O)OC)c1ccccc1CON=C(C)c1cccc(C=C(Cl)Br)c1` [Example 35, methyl-(E)-2-[[[[[2-[3-(2-bromo-2-chlorovinyl)phenyl](1-methyl)methylidene]amino]oxy]methyl]phenyl]-2-methoxyiminoacetate], the “TLB control value (C.V.)” value is recorded as 10% in the assay with Phytophthora infestans (10 ppm), 90% in the assay with Phytophthora infestans (50 ppm) and 100% in the assay on Phytophthora infestans (100 ppm). In the assay on Rhizoctonia solani AG-1 (100 ppm), the “RSB control value (C.V.)” value came out at 10%. In addition, the “BPM control value (C.V.)” value came to 15% in the assay on Erysiphae graminis (2 ppm, barley powdery mildew); 60% with Erysiphae graminis (10 ppm, barley powdery mildew); 93% in the assay with Erysiphae graminis (50 ppm, barley powdery mildew); 95% in the assay on Erysiphae graminis (100 ppm, barley powdery mildew). For the same molecule, the “CGM control value (C.V.)” value in the assay with Botrytis cinerae (cucumber gray mold rot) is reported as 50%. Also, the “WLR control value (C.V.)” value was found to be 100% in the assay with Puccinia recondita (2 ppm, wheat leaf rust); 100% in the assay with Puccinia recondita (10 ppm, wheat leaf rust); 100% in the assay on Puccinia recondita (50 ppm, wheat leaf rust); 100% in the assay on Puccinia recondita (100 ppm, wheat leaf rust). The “RCB control value (C.V.)” value in assay [1] (2 ppm) is reported as 70%; in assay [1] (10 ppm), 100%; in assay [1] (50 ppm), 100%; in assay [1] (100 ppm) it was 100%.
In the case of `CNC(=O)/C(=N/OC)c1ccccc1COc1cccc(C=C(Br)Br)c1` [Example 6, (E)-2-(2-((3-(2,2-dibromovinyl)phenoxy)methyl)phenyl)-2-methoxyimino-N-methylacetamide], the pest or weed control at 100 ppm in the assay on Phytophthora infestans (setting [2]) amounted to 50%; in the assay with Rhizoctonia solani AG-1 (setting [3]), 100%; in the assay on Erysiphae graminis (setting [14]), 97%; with Botrytis cinerae (cucumber gray mold rot), 60%; in the assay on Puccinia recondita (setting [18]) it was 98%; in assay [1] (setting [10]), 100%. For the same molecule, the pest or weed control at 2 ppm in the assay on Rhizoctonia solani AG-1 (setting [3]) is 30%; in the assay with Erysiphae graminis (setting [11]), 0%; with Puccinia recondita (setting [15]) it was 0%; in assay [1] (setting [10]) it was 98%. The pest or weed control at 10 ppm in the assay with Rhizoctonia solani AG-1 (setting [3]) is 90%; in the assay on Erysiphae graminis (setting [12]) it was 30%; with Puccinia recondita (setting [16]), 35%; in assay [1] (setting [10]), 100%. In addition, the pest or weed control at 50 ppm worked out at 100% in the assay on Rhizoctonia solani AG-1 (setting [3]), 90% with Erysiphae graminis (setting [13]), 95% in the assay on Puccinia recondita (setting [17]) and 100% in assay [1] (setting [10]).
On to `CO/N=C(/C(=O)OC)c1ccccc1COc1ccc(C=C(Cl)Cl)cc1Cl` [Example 39, methyl-(E)-2-(2-((2-chloro-4-(2,2-dichlorovinyl)phenoxy)methyl)phenyl)-2-methoxyiminoacetate], for which the pest or weed control at 2 ppm (with Phytophthora infestans (setting [2]); in the assay on Rhizoctonia solani AG-1 (setting [3]); with Erysiphae graminis (setting [11]); in the assay on Puccinia recondita (setting [15]); in assay [1] (setting [10])) was 100% in each case. Moreover, the pest or weed control at 10 ppm (with Phytophthora infestans (setting [2]); in the assay with Rhizoctonia solani AG-1 (setting [3]); in the assay on Erysiphae graminis (setting [12]); in the assay on Puccinia recondita (setting [16]); in assay [1] (setting [10])) was 100% in each case. The pest or weed control at 50 ppm (with Phytophthora infestans (setting [2]); in the assay with Rhizoctonia solani AG-1 (setting [3]); with Erysiphae graminis (setting [13]); in the assay with Puccinia recondita (setting [17]); in assay [1] (setting [10])) was 100% in each case. In addition, the pest or weed control at 100 ppm in the assay with Phytophthora infestans (setting [2]) was found to be 100%; in the assay on Rhizoctonia solani AG-1 (setting [3]) it was 100%; in the assay with Erysiphae graminis (setting [14]), 100%; in the assay with Botrytis cinerae (cucumber gray mold rot), 75%; with Puccinia recondita (setting [18]) it was 100%; in assay [1] (setting [10]), 100%.
For the molecule `CO/N=C(/C(=O)OC)c1ccccc1COc1cccc(C=C(Cl)Cl)c1` [Example 1, methyl-(E)-2-(2-((3-(2,2-dichlorovinyl)phenoxy)methyl)phenyl)-2-methoxyiminoacetate], the pest or weed control at 2 ppm stood at 80% in the assay on Phytophthora infestans (setting [2]), 100% in the assay with Erysiphae graminis (setting [11]), 98% in the assay on Puccinia recondita (setting [15]) and 13% in assay [1] (setting [10]). In addition, the pest or weed control at 10 ppm with Phytophthora infestans (setting [2]) turned out to be 92%; in the assay with Erysiphae graminis (setting [12]), 100%; in the assay on Puccinia recondita (setting [16]), 100%; in assay [1] (setting [10]), 50%. Moreover, the pest or weed control at 50 ppm with Phytophthora infestans (setting [2]) was determined as 100%; with Erysiphae graminis (setting [13]), 100%; with Puccinia recondita (setting [17]), 100%; in assay [1] (setting [10]), 92%. Also, the pest or weed control at 100 ppm in the assay with Phytophthora infestans (setting [2]) was determined as 100%; with Rhizoctonia solani AG-1 (setting [3]), 45%; in the assay with Erysiphae graminis (setting [14]), 100%; in the assay on Botrytis cinerae (cucumber gray mold rot) it was 29%; with Puccinia recondita (setting [18]), 100%; in assay [1] (setting [10]) it was 100%.
Take `CO/N=C(/C(=O)OC)c1ccccc1COc1cc(Br)ccc1C=C(Cl)Cl` [Example 61, methyl-(E)-2-(2-((5-bromo-2-(2,2-dichlorovinyl)phenoxy)methyl)phenyl)-2-methoxyiminoacetate]: the pest or weed control at 2 ppm was 99% in the assay with Phytophthora infestans (setting [2]); 95% in the assay with Rhizoctonia solani AG-1 (setting [3]); 100% with Erysiphae graminis (setting [4]); 100% in the assay on Puccinia recondita (setting [7]); 99% in assay [1] (setting [10]). Also, the pest or weed control at 10 ppm (in the assay with Phytophthora infestans (setting [2]); with Rhizoctonia solani AG-1 (setting [3]); with Erysiphae graminis (setting [5]); in the assay on Puccinia recondita (setting [8]); in assay [1] (setting [10])) was 100% throughout. The pest or weed control at 50 ppm came out at 100% with Phytophthora infestans (setting [2]); 100% in the assay with Rhizoctonia solani AG-1 (setting [3]); 100% in the assay on Erysiphae graminis (setting [6]); 40% in the assay on Botrytis cinerae; 100% in the assay with Puccinia recondita (setting [9]); 100% in assay [1] (setting [10]). Also, the pest or weed control at 100 ppm with Phytophthora infestans (setting [2]) came to 100%; with Rhizoctonia solani AG-1 (setting [3]) it was 100%; in the assay with Erysiphae graminis (168 h, 100 ppm, read-out: BPM control value (C.V.)), 100%; in the assay on Botrytis cinerae, 85%; in the assay on Puccinia recondita (Puccinia recondita, 100 ppm, read-out: WLR control value (C.V.)), 100%; in assay [1] (setting [10]), 100%.
